Test results published in ChEMBL document CHEMBL1201862, “PubChem BioAssay data set” (2004).
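Values below derive from 48-hour exposures of cells grown in 96-well plates, with endpoints linearly interpolated between the two concentrations bracketing the appropriate inhibition level. GI50 marks 50% less growth.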 The source made the active and inactive calls. No stated cut-off is given here; in the data, active = GI50 up to about 1.1 µM and inactive = higher.

Columns and labels:
Assay in all cases: growth of human tumour cells (NCI), 48 h
RXF 393 = tested on: RXF 393
SR = tested on: SR
SK-MEL-5 = tested on: SK-MEL-5
RPMI-8226 = tested on: RPMI-8226
COLO 205 = tested on: COLO 205
SF-295 = tested on: SF-295
T47D = tested on: T47D
K562 = tested on: K562
EKVX = tested on: EKVX
SF-268 = tested on: SF-268
SNB-19 = tested on: SNB-19
OVCAR-3 = tested on: OVCAR-3
HCT-116 = tested on: HCT-116
NCI/ADR-RES = tested on: NCI/ADR-RES
SW-620 = tested on: SW-620
A549 = tested on: A549
HT-29 = tested on: HT-29
A498 = tested on: A498
SK-MEL-2 = tested on: SK-MEL-2
HOP-92 = tested on: HOP-92

Measured: GI50

COC(=O)c1c(O)ccc2c1c1c(n2Cc2cccc(C)c2)C(=O)c2ccccc2C1=O
inactive: RXF 393 10.7 µM | SR 4.98 µM | SK-MEL-5 13.1 µM | RPMI-8226 3.72 µM | COLO 205 1.67 µM | SF-295 13 µM | T47D 1.94 µM | K562 8.91 µM | EKVX 19.5 µM | SF-268 12 µM | SNB-19 14.1 µM | OVCAR-3 8.2 µM | HCT-116 6.97 µM | NCI/ADR-RES 9.42 µM | SW-620 14.2 µM | A549 6.97 µM | HT-29 4.07 µM | A498 17.7 µM | SK-MEL-2 12.6 µM | HOP-92 6.61 µM

O=c1ccn2n1CCCCC2
inactive: RXF 393 > 100 µM | SR > 100 µM | SK-MEL-5 > 100 µM | RPMI-8226 > 100 µM | COLO 205 > 100 µM | SF-295 > 100 µM | T47D 58.2 µM | K562 > 100 µM | EKVX > 100 µM | SF-268 > 100 µM | SNB-19 > 100 µM | OVCAR-3 > 100 µM | HCT-116 > 100 µM | NCI/ADR-RES > 100 µM | SW-620 > 100 µM | A549 > 100 µM | HT-29 > 100 µM | A498 > 100 µM | SK-MEL-2 > 100 µM | HOP-92 > 100 µM

Cc1nc(-c2cccnc2)sc1C(=O)CC(=O)C(=O)Nc1cccc(NC(=O)C(=O)CC(=O)c2sc(-c3cccnc3)nc2C)n1
inactive: RXF 393 > 100 µM | SR > 100 µM | SK-MEL-5 > 100 µM | RPMI-8226 > 100 µM | COLO 205 > 100 µM | SF-295 > 100 µM | T47D > 100 µM | K562 > 100 µM | EKVX > 100 µM | SF-268 > 100 µM | SNB-19 > 100 µM | OVCAR-3 > 100 µM | HCT-116 > 100 µM | NCI/ADR-RES > 100 µM | SW-620 > 100 µM | A549 > 100 µM | HT-29 > 100 µM | A498 > 100 µM | SK-MEL-2 > 100 µM | HOP-92 > 100 µM

CCCCCCc1cc2cc(-c3cn4ccsc4n3)c(=O)oc2cc1O
inactive: RXF 393 29.3 µM | SR > 100 µM | SK-MEL-5 > 30.9 µM | RPMI-8226 98.9 µM | COLO 205 > 100 µM | SF-295 > 100 µM | T47D > 100 µM | K562 > 75.2 µM | EKVX > 77.6 µM | SF-268 > 58.2 µM | SNB-19 > 100 µM | OVCAR-3 > 77.1 µM | HCT-116 > 67.6 µM | NCI/ADR-RES > 100 µM | SW-620 > 79.6 µM | A549 > 100 µM | HT-29 > 100 µM | A498 > 100 µM | SK-MEL-2 > 100 µM | HOP-92 > 100 µM
